Where two headings read alike, the source gives them in different places.
Key:
H1299 p53 Y220C = experiment: Cell Proliferation Assay (CellTiter-Glo, CTG), H1299 p53 Y220C (NClH1299-inducible p53 Y220C); assay type: cell-based; settings: Homo sapiens, NCI-H1299, 120 h, CellTiter-Glo, 5 days
Summary of the method: (§1)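 NClH1299 lines stably transduced with Tet-inducible p53 Y220C or R273H, plus NUGC3, were treated with compound for 5 days at 250-500 cells/well. IC50 derived from CellTiter-Glo luminescent signal after 10 min room-temperature incubation.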

p53 Y220C = p53 Y220C (Homo sapiens, UniProt P04637, Y220C); experiment: Luciferase Reporter Assay (Luc), p53 response element, NClH1299 cells with inducible p53 Y220C; assay type: cell-based; settings: luciferase reporter, NClH1299 inducible p53 Y220C, 6 hour; for AC50: read-out: Luc P53 Y220C AC50
Summary of the method: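 Doxycycline (0.5 ug/mL, 24 h) induces the mutant before a 6-hour compound treatment. Reporter activity is then quantified by One-Glo luminescence.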

NUGC3 p53 Y220C = experiment: Cell Proliferation Assay (CellTiter-Glo, CTG), NUGC3 p53 Y220C; assay type: cell-based; settings: Homo sapiens, NUGC-3, 120 h, CellTiter-Glo, 5 days
Summary of the method: as §1

[1] = target: T1, p53 Y220C mutant protein (amino acid residues 94-293) (Homo sapiens, UniProt P04637, Y220C); experiment: Thermal Shift Assay (TSA), dTM; assay type: binding; settings: for ΔTm at 10 µM: 10 uM compound; for ΔTm at 100 µM: 100 uM compound
T1 construct: p53 Y220C mutant protein (amino acid residues 94-293)
Summary of the method: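 TM is derived by fitting Sypro Orange melt curves (30 °C to 50 °C, 0.03 °C/second) to a Boltzmann two-state model. Beforehand, 5 μM p53 Y220C (94-293) sits with 10 μM or 100 μM compound for 3 hours at 20 °C in HEPES pH7.4 buffer containing 100 mM NaCl and 1% DMSO.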

H1299 p53 R273H = experiment: Cell Proliferation Assay (CellTiter-Glo, CTG), H1299 p53 R273H (NClH1299-inducible p53 R273H); assay type: cell-based; settings: Homo sapiens, NCI-H1299, 120 h, CellTiter-Glo, 5 days
Summary of the method: as §1

[2] = target: T1, p53 Y220C mutant protein (amino acid residues 94-293); experiment: Surface Plasmon Resonance (SPR) assay, Kd_kinetic; assay type: binding; settings: read-out: SPR P53 Y220C KD kinetic
Summary of the method: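 Temperature held at 16 or 20 °C during Biacore 8K runs. Buffer: 50 mM Tris, pH 7.5, 100 mM NaCl, 1 mM DTT, 0.01% Brij35, 0.05% Tween-20, 1% DMSO.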

[3] = 10 uM tool compound as positive control
[4] = thermal shift, read-out: TSA P53 Y220C dTM (10 uM)
[5] = thermal shift, read-out: TSA P53 Y220C dTM (100 uM)
[6] = NClH1299-inducible p53 Y220C cells
[7] = p53 Y220C, read-out: TSA P53 Y220C dTM
[8] = NClH1299-inducible p53 R273H cells

Compound | IC50 (H1299 p53 Y220C; H1299 p53 Y220C) | Emax (p53 Y220C; [3]) | AC50 (p53 Y220C) | IC50 (NUGC3 p53 Y220C; NUGC3 p53 Y220C) | ΔTm at 10 µM [1, 4] | ΔTm at 100 µM [1, 5] | IC50 (H1299 p53 R273H; H1299 p53 R273H) | Kd ([2]; SPR, kinetic KD, p53 Y220C) | IC50 (H1299 p53 Y220C; [6]) | AC50 (p53 Y220C; AC50) | Emax (p53 Y220C; Emax) | IC50 (NUGC3 p53 Y220C; NUGC3 cells) | ΔTm at 10 µM [1, 7] | IC50 (H1299 p53 R273H; [8]) | Kd [2] | Kd ([2]; SPR, p53 Y220C) | ΔTm at 100 µM [1, 7]
CNC(=O)c1ccc(NCC#Cc2nc3c(N[C@@H]4CN(C)CC[C@@H]4F)cccn3c2SC(F)(F)F)c(OC)c1 [Example 146] | < 750 nM | 70 to 80% | < 750 nM | < 750 nM | ≥ 10 °C | ≥ 10 °C | 5 to 8 µM | < 10 nM | – | – | – | – | – | – | – | – | –
CNC(=O)c1ccc(NCC#Cc2cc3c(N[C@@H]4CCN(C)C[C@@H]4F)nccn3c2SC(F)(F)F)cc1 [Example 297] | – | – | – | – | – | – | – | – | < 750 nM | < 750 nM | > 90% | < 750 nM | ≥ 10 °C | ≥ 10 µM | < 10 nM | – | –
CNC(=O)c1ccc(OC)c(NCC#Cc2nc3c(N[C@@H]4C[C@H]5CC[C@H](N5)[C@@H]4F)cccn3c2SC(F)(F)F)c1 [Example 202] | < 750 nM | 70 to 80% | < 750 nM | < 750 nM | ≥ 10 °C | ≥ 10 °C | 8 to 10 µM | < 10 nM | – | – | – | – | – | – | – | – | –
CNC(=O)c1ccc(NCC#Cc2nc3c(N[C@@H]4CCN(C)C[C@@H]4F)cccn3c2CC(F)(F)F)cc1 [Example 35, 4-{[3-(8-{[(3S,4R)-3-fluoro-1-methylpiperidin-4-yl]amino}-3-(2,2,2-trifluoroethyl)imidazo[1,2-a]pyridin-2-yl)prop-2-yn-1-yl]amino}-N-methylbenzamide] | 1500 to 3000 nM | 70 to 80% | > 3000 nM | 1500 to 3000 nM | – | 5 to 10 °C | ≥ 10 µM | < 10 nM | – | – | – | – | – | – | – | – | –
CNC(=O)c1ccc(NCC#Cc2nc3c(N[C@@H]4CCN(C)C[C@@H]4F)cccn3c2C2CC2)c(OC)c1 [Example 29, 4-{[3-(3-cyclopropyl-8-{[(3S,4R)-3-fluoro-1-methylpiperidin-4-yl]amino}imidazo[1,2-a]pyridin-2-yl)prop-2-yn-1-yl]amino}-3-methoxy-N-methylbenzamide] | > 3000 nM | < 70% | > 3000 nM | > 3000 nM | – | 5 to 10 °C | ≥ 10 µM | 100 to 1000 nM | – | – | – | – | – | – | – | – | –
CNC(=O)c1cnc(OC)c(NCC#Cc2nc3c(N[C@@H]4CCNC[C@@H]4F)cccn3c2SC(F)(F)F)c1 [Example 258] | – | – | – | – | – | – | – | – | < 750 nM | < 750 nM | 70 to 80% | < 750 nM | ≥ 10 °C | ≥ 10 µM | – | < 10 nM | –
CNC(=O)c1ccc(NCC#Cc2nc3c(NC4CCN(C)CC4)cc(NC(=O)OC(C)(C)C)cn3c2CC(F)(F)F)c(OC)c1 [Example 39, tert-butyl N-[2-(3-{[2-methoxy-4-(methylcarbamoyl)phenyl]amino}prop-1-yn-1-yl)-8-[(1-methylpiperidin-4-yl)amino]-3-(2,2,2-trifluoroethyl)imidazo[1,2-a]pyridin-6-yl]carbamate] | > 3000 nM | < 70% | > 3000 nM | 1500 to 3000 nM | – | 1 to 5 °C | 5 to 8 µM | > 1000 nM | – | – | – | – | – | – | – | – | –
COc1cc(P(C)(C)=O)ccc1NCC#Cc1cc2c(N[C@@H]3CCN(C)C[C@@H]3F)nccn2c1SC(F)F [Example 257] | – | – | – | – | – | – | – | – | < 750 nM | < 750 nM | 80 to 90% | < 750 nM | ≥ 10 °C | ≥ 10 µM | – | < 10 nM | –
CNC(=O)c1ccc(C#N)c(NCC#Cc2cc3c(N[C@@H]4CCN(C)C[C@@H]4F)nccn3c2SC(F)(F)F)c1 [Example 300] | – | – | – | – | – | – | – | – | < 750 nM | < 750 nM | > 90% | < 750 nM | ≥ 10 °C | ≥ 10 µM | – | < 10 nM | –
CNC(=O)c1ccc(OC)c(NCC#Cc2cc3c(N[C@@H]4CCNC[C@@H]4F)nccn3c2SC(F)(F)F)c1 [Example 289] | – | – | – | – | – | – | – | – | < 750 nM | < 750 nM | > 90% | < 750 nM | ≥ 10 °C | 5 to 8 µM | – | < 10 nM | ≥ 10 °C
CNC(=O)c1ccc(OC)c(NCC#Cc2nn3c(N[C@H]4C[C@@H]5CC[C@@H](N5)[C@H]4F)cccc3c2SC(F)(F)F)c1 [Example 287] | – | – | – | – | – | – | – | – | < 750 nM | < 750 nM | 80 to 90% | < 750 nM | ≥ 10 °C | < 5 µM | – | < 10 nM | –
COc1cc(S(C)(=O)=O)ccc1NCC#Cc1nn2c(N[C@@H]3CCNC[C@@H]3F)cccc2c1SC(F)(F)F [Example 238] | – | – | – | – | – | – | – | – | < 750 nM | < 750 nM | 80 to 90% | < 750 nM | ≥ 10 °C | 5 to 8 µM | – | < 10 nM | –
CNC(=O)c1cccc(NCC#Cc2nc3c(N[C@@H]4CCN(C)C[C@@H]4F)cccn3c2SC(F)(F)F)n1 [Example 162] | < 750 nM | 80 to 90% | < 750 nM | < 750 nM | ≥ 10 °C | ≥ 10 °C | ≥ 10 µM | < 10 nM | – | – | – | – | – | – | – | – | –
COc1cc(C(=O)NC(C)C)ccc1NCC#Cc1nc2c(N[C@@H]3CCN(C)C[C@@H]3F)cccn2c1CC(F)(F)F [Example 48, 4-{[3-(8-{[(3S,4R)-3-fluoro-1-methylpiperidin-4-yl]amino}-3-(2,2,2-trifluoroethyl)imidazo[1,2-a]pyridin-2-yl)prop-2-yn-1-yl]amino}-N-isopropyl-3-methoxybenzamide] | < 750 nM | 70 to 80% | 750 to 1500 nM | 750 to 1500 nM | – | ≥ 10 °C | 5 to 8 µM | < 10 nM | – | – | – | – | – | – | – | – | –
COc1cc(S(=O)(=O)C2CC2)ccc1NCC#Cc1nc2c(N[C@@H]3CCN(C)C[C@@H]3F)cccn2c1SC(F)(F)F [Example 81, (3S,4R)—N-[2-(3-{[4-(cyclopropanesulfonyl)-2-methoxyphenyl]amino}prop-1-yn-1-yl)-3-[(trifluoromethyl)sulfanyl]imidazo[1,2-a]pyridin-8-yl]-3-fluoro-1-methylpiperidin-4-amine] | < 750 nM | 80 to 90% | < 750 nM | < 750 nM | – | ≥ 10 °C | 5 to 8 µM | < 10 nM | – | – | – | – | – | – | – | – | –
